EC50 and IC50 data for five compounds are collected here from ChEMBL document CHEMBL1201862, “PubChem BioAssay data set” (2004).

By EC50 is commonly meant the concentration at which the effect is half-maximal. One may read the IC50 as the point on the concentration scale where inhibition reaches its midpoint.

The target in assay [1] is T1, Insulin-degrading enzyme (Homo sapiens, UniProt P14735).
T1 sequence (P14735 whole entry): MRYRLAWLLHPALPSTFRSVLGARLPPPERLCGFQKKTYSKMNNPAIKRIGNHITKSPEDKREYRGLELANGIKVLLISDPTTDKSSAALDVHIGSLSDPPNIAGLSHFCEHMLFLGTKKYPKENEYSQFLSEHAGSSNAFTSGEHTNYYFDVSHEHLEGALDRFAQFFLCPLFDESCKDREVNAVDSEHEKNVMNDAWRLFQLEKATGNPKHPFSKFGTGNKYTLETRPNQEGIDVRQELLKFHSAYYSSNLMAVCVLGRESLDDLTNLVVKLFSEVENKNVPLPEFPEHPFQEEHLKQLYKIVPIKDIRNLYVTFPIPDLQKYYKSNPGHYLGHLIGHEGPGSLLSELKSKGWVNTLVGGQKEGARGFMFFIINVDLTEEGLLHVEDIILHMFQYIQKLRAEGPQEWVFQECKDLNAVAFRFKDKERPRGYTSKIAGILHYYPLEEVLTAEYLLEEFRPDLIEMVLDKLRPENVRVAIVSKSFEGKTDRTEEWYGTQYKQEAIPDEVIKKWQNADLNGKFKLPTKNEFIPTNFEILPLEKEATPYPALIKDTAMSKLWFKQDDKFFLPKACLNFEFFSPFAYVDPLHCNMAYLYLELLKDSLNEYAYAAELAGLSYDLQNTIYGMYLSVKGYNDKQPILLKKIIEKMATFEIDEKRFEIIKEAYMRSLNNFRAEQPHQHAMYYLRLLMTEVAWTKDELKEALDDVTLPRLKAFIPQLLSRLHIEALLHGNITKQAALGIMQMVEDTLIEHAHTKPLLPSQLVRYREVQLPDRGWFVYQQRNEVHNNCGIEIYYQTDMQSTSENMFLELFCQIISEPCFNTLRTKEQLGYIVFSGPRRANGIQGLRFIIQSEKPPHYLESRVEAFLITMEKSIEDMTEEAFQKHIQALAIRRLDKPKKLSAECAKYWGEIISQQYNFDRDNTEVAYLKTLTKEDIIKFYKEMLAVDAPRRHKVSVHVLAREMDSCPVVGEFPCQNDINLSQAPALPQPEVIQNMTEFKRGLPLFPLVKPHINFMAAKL
The experiment in a line: recombinant IDE activation, cell-free – biochemical, fluorescence polarization, counter-screen for IDE activator project, dose response (AID 588681). (Polarisation of emitted light reports the rotation of a fluorescent probe.)

In assay [2] the target is T1, Insulin-degrading enzyme. The experiment in a line: cellular IDE activation of Abeta substrate cleavage – fluorescence polarization, HEK cells, dose response (AID 588439). In kind it is functional, cell-based.
Assay [3] relates to HEK293. The assay can be described thus: membrane integrity loss in HEK cells – cell-based, fluorescence, cytotoxicity control for IDE activator project, dose response (AID 588440).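 Further: cytotoxicity by LDH release measuring loss of membrane integrity.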 In kind it is functional. To be noted: Homo sapiens.
Assay [4] concerns HEK293. The experiment in a line: optical interference in Abeta FP readout, dose response, artefact control for IDE activator project, biochemical, fluorescence polarization (AID 588442). It counts as functional, cell-based. To be noted: Homo sapiens.
In assay [5] the target is T2, Caspase-3 (Homo sapiens, UniProt P42574).
T2 sequence (P42574 whole entry): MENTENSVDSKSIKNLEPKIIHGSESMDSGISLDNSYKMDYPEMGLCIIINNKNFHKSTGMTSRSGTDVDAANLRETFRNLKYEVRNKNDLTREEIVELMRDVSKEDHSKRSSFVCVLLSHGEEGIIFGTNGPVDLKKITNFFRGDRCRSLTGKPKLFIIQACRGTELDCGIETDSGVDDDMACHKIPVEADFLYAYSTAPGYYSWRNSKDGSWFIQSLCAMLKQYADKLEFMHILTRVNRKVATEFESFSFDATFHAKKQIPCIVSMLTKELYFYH
The experiment in a line: inhibition of recombinant caspase-3 activity – biochemical, luminescence, set 2, selectivity assay for SENP protease inhibitor project, SAR follow-up (AID 588599). In kind it is functional.

The target of assay [6] is T3, Sentrin-specific protease 8 (Homo sapiens, UniProt Q96LD8).
T3 sequence (Q96LD8 whole entry): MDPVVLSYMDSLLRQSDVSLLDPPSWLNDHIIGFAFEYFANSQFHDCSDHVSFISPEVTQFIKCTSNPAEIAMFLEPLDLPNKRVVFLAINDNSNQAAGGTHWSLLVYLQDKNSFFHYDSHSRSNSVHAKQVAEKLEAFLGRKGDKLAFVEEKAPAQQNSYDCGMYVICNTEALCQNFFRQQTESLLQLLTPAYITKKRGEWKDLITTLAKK
The experiment in a line: inhibition of sentrin protease 8 – biochemical, luminescence, set 2, SAR follow-up (AID 588601). It counts as functional.

In assay [7] the target is T4, Sentrin-specific protease 6 (Homo sapiens, UniProt Q9GZR1).
T4 sequence (Q9GZR1 whole entry): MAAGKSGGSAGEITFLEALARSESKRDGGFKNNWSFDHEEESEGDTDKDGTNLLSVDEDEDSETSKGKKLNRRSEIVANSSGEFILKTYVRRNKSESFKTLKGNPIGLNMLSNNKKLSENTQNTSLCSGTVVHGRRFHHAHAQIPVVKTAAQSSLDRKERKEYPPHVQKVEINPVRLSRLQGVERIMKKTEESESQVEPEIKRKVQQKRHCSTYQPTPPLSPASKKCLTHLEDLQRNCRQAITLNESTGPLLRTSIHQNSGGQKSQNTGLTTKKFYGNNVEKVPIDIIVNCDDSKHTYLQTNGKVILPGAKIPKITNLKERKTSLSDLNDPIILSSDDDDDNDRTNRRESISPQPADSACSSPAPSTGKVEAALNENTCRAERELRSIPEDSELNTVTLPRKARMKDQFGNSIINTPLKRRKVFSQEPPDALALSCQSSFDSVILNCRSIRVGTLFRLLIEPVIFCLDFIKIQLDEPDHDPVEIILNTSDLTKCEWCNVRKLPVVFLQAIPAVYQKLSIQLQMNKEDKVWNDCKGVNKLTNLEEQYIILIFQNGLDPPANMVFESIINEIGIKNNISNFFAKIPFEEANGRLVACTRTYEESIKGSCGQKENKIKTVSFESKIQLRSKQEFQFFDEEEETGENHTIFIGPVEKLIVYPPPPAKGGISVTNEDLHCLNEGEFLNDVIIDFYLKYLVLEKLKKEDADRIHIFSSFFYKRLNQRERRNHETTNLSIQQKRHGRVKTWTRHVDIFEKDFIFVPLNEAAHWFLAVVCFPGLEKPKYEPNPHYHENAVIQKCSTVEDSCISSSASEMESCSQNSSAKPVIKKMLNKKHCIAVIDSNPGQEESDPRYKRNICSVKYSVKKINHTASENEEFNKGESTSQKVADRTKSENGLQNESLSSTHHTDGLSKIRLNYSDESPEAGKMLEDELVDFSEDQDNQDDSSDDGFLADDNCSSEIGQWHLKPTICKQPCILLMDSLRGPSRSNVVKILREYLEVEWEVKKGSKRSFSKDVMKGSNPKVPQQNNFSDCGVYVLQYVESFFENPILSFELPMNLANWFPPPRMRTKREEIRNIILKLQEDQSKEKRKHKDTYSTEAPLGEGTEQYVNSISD
The experiment in a line: inhibition of human SENP6 catalytic domain – biochemical, luminescence, set 2, SAR follow-up (AID 588598). In kind it is functional.

The target of assay [8] is T5, Sentrin-specific protease 7 (Homo sapiens, UniProt Q9BQF6).
T5 sequence (Q9BQF6 whole entry): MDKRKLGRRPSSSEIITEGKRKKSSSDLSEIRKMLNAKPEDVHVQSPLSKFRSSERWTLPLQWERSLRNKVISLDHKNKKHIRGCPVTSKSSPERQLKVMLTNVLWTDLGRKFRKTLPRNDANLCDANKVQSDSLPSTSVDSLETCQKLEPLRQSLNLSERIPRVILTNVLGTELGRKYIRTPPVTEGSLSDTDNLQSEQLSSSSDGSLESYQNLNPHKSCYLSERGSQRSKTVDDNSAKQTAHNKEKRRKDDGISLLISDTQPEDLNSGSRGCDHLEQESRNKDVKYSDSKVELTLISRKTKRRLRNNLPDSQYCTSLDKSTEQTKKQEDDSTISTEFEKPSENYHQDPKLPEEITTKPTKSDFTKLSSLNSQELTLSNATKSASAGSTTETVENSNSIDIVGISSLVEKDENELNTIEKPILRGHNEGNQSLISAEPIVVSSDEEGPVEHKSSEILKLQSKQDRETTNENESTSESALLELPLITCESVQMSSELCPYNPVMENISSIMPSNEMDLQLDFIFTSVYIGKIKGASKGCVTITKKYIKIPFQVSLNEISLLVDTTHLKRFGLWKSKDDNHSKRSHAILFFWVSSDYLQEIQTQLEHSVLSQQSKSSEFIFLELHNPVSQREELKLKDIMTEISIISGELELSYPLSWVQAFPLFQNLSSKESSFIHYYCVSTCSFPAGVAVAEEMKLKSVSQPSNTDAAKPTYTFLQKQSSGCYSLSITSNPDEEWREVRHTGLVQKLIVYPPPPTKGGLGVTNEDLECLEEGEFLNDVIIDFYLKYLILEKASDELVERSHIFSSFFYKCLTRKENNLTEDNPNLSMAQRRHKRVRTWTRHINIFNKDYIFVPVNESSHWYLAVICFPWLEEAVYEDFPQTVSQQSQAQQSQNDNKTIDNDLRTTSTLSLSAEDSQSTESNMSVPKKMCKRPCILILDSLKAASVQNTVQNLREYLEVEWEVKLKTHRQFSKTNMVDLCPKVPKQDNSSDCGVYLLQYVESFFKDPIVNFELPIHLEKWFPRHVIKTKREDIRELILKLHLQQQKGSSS
The assay can be described thus: inhibition of human SENP7 cleavage activity – biochemical, luminescence, set 2, SAR follow-up (AID 588600). In kind it is functional.

The next assay addresses T6, Bcl-2-related protein A1 (Mus musculus, UniProt Q07440).
T6 sequence (Q07440 whole entry): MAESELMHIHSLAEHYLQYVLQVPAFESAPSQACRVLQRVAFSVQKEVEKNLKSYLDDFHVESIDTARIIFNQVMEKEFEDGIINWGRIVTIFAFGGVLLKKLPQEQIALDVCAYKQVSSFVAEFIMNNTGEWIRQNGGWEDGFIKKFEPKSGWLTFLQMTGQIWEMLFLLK
In kind it is functional.

The target in assay [9] is T7, Ubiquitin-conjugating enzyme E2 N (Homo sapiens, UniProt P61088).
T7 sequence (P61088 whole entry): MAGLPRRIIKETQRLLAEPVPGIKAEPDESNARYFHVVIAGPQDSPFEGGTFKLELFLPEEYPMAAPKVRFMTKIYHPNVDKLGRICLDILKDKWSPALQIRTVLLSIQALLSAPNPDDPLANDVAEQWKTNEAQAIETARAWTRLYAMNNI
It counts as functional.

Assay [10] deals with T7, Ubiquitin-conjugating enzyme E2 N. It counts as functional. The source holds these as a separate data set.
Assay [11] addresses T2, Caspase-3. The assay can be described thus: SAR Analysis of small molecule inhibitors of Sentrin-specific proteases (SENPs) using a Caspase-3 Selectivity assay. [Related pubchem assays (depositor defined):AID2540, AID2599, AID434973, AID489001]. In kind it is functional.
Assay [12] has as its target T4, Sentrin-specific protease 6. The experiment in a line: SAR Analysis of small molecule inhibitors of Sentrin-specific protease 6 (SENP6) using a Luminescent assay. [Related pubchem assays (depositor defined):AID2582, AID2599]. In kind it is functional.
Assay [13] deals with T3, Sentrin-specific protease 8. The experiment in a line: inhibition of human SENP8 cleavage activity – biochemical, luminescence, SAR follow-up (AID 504501). It counts as functional.
Assay [14] addresses T5, Sentrin-specific protease 7. The assay can be described thus: inhibition of human SENP7 cleavage activity – biochemical, luminescence, SAR follow-up (AID 504497). It counts as functional.

Activity calls are given as the source filed them. For most assays here, no stated cut-off is given here; in the data, actives have a measured IC50 and inactives only a lower limit.

As to `O=C(c1ccccc1)C1NC1c1ccccc1` (configuration not stated), the EC50 at Insulin-degrading enzyme [1], on Insulin-degrading enzyme [2] and in the assay with HEK293 [4] was > 54.7 µM (inactive) throughout. Moreover, in the assay on HEK293 [3], the IC50 is > 89.3 µM (inactive).
As to `Cc1ccc2nc(NC(=O)c3cccc(S(=O)(=O)NCC4CCCO4)c3)sc2c1` (configuration not stated), the IC50 (at Caspase-3 [5]; in assay [6]; in [7]; in assay [8]) was > 99 µM (inactive) throughout.
`C#CCOCCOCCOCCNc1nc(N2CCN(C(=O)CCCCCCCCCCNC(=O)[C@H](CCCCN)n3cc(C[C@@H](C)CC)nn3)CC2)nc(N2CCN(C(=O)CCCCCCCCCCNC(=O)[C@H](CCCN=C(N)N)n3cc(C[C@@H](C)CC)nn3)CC2)n1`: the IC50 at Bcl-2-related protein A1 was 4.6 µM (active); in assay [9], 1.44 µM (active); in the assay with HEK293 [3], 2.17 µM (active); in assay [10], 2 µM (active). In addition, the figures for the concentration giving a half-maximal response (EC50) on Insulin-degrading enzyme [1], on Insulin-degrading enzyme [2] and in the assay on HEK293 [4] were > 2.03 µM (active), > 2.03 µM (active) and > 54.7 µM (inactive), respectively.
Consider `O=C(CCc1ccccc1)NNc1cc(N2CCOCC2)nc(N2CCOCC2)n1`, for which the IC50 (on Caspase-3 [11]; in assay [12]; in assay [13]; in [14]) was > 99 µM (inactive) each time.
With `CCCCc1ccc2nc(NC(=O)c3cccn3C)sc2c1`, the concentration for half-maximal inhibition (IC50) was 0.749 µM (active) on Caspase-3 [5]; 0.944 µM (active) in [6]; 0.938 µM (active) in assay [7]; 0.72 µM (active) on Caspase-3 [11]; 0.79 µM (active) in assay [12]; 0.81 µM (active) in assay [13]. Besides, the IC50 in [14] is 0.92 µM (active); in [8], 0.987 µM (active).
